Reference: the supplement of paper PMC13207355
Structures can show the parent of a compound that is named as a salt.

Key:
Conditions in all cases: exposure time: 72 h
E34 [1] = patient-derived glioblastoma stem cells of proneural subtype; test: phenotypic distance (Euclidean, principal components) from DMSO controls (arbitrary units); higher = stronger morphological change
E31 [2] = patient-derived glioblastoma stem cells of proneural subtype; test: as above
FT3469 [3] = normal neural stem cell line; test: as above
E28 [4] = patient-derived glioblastoma stem cells of classical subtype; test: as above
E13 [5] = patient-derived glioblastoma stem cells of classical subtype; test: as above
E57 [6] = patient-derived glioblastoma stem cells of mesenchymal subtype; test: as above
E21 [7] = patient-derived glioblastoma stem cells of mesenchymal subtype; test: as above
E34 [8] = test: surviving fraction (nuclei count normalised to DMSO); higher = more cells surviving (less toxic)
E31 [9] = test: as above
FT3469 [10] = test: as above
E28 [11] = test: as above
E13 [12] = test: as above
E57 [13] = test: as above
E21 [14] = test: as above
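Wherever phenotypic distance (Euclidean, principal components) from DMSO controls is given: cell Painting imaging in 384-well plates, CellProfiler features reduced to at least 20 principal components, Euclidean distance versus same-plate DMSO vehicle wells (0.1% v/v), median over six images per well.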
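Wherever surviving fraction (nuclei count normalised to DMSO) is given: nuclei counted by high-content imaging of Hoechst-stained cells in laminin-coated 384-well plates, relative to 0.1% DMSO vehicle wells, with staurosporine as cell-death control.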

O=C1CC[C@@H](C(=O)N2CSC[C@H]2C(=O)O)N1 [Pidotimod]
Conditions	phenotypic distance	surviving fraction
E13 [5], 4.1 nM	0.802	–
E13 [5], 12.3 nM	0.46	–
E13 [5], 37 nM	0.672	–
E13 [5], 111.1 nM	0.456	–
E13 [5], 333.3 nM	3.33	–
E13 [5], 1000 nM	0.449	–
E13 [5], 3000 nM	0.493	–
E13 [12], 4.1 nM	–	0.925
E13 [12], 12.3 nM	–	1.01
E13 [12], 37 nM	–	0.97
E13 [12], 111.1 nM	–	1
E13 [12], 333.3 nM	–	1.06
E13 [12], 1000 nM	–	1.01
E13 [12], 3000 nM	–	0.913
E21 [7], 4.1 nM	0.591	–
E21 [7], 12.3 nM	0.496	–
E21 [7], 37 nM	0.601	–
E21 [7], 111.1 nM	0.694	–
E21 [7], 333.3 nM	0.815	–
E21 [7], 1000 nM	0.785	–
E21 [7], 3000 nM	0.805	–
E21 [14], 4.1 nM	–	0.96
E21 [14], 12.3 nM	–	1
E21 [14], 37 nM	–	0.984
E21 [14], 111.1 nM	–	1.08
E21 [14], 333.3 nM	–	0.991
E21 [14], 1000 nM	–	0.96
E21 [14], 3000 nM	–	0.947
E28 [4], 4.1 nM	0.887	–
E28 [4], 12.3 nM	1.4	–
E28 [4], 37 nM	0.401	–
E28 [4], 111.1 nM	0.59	–
E28 [4], 333.3 nM	0.551	–
E28 [4], 1000 nM	0.647	–
E28 [4], 3000 nM	0.608	–
E28 [11], 4.1 nM	–	1.2
E28 [11], 12.3 nM	–	1.02
E28 [11], 37 nM	–	0.964
E28 [11], 111.1 nM	–	1.11
E28 [11], 333.3 nM	–	1.04
E28 [11], 1000 nM	–	1.16
E28 [11], 3000 nM	–	0.954
E31 [2], 4.1 nM	0.386	–
E31 [2], 12.3 nM	0.576	–
E31 [2], 37 nM	0.777	–
E31 [2], 111.1 nM	0.985	–
E31 [2], 333.3 nM	0.492	–
E31 [2], 1000 nM	0.921	–
E31 [2], 3000 nM	0.594	–
E31 [9], 4.1 nM	–	1.08
E31 [9], 12.3 nM	–	1.02
E31 [9], 37 nM	–	1.01
E31 [9], 111.1 nM	–	1.11
E31 [9], 333.3 nM	–	0.994
E31 [9], 1000 nM	–	1.17
E31 [9], 3000 nM	–	0.845
E34 [1], 4.1 nM	0.643	–
E34 [1], 12.3 nM	0.613	–
E34 [1], 37 nM	0.723	–
E34 [1], 111.1 nM	0.721	–
E34 [1], 333.3 nM	0.963	–
E34 [1], 1000 nM	0.89	–
E34 [1], 3000 nM	0.949	–
E34 [8], 4.1 nM	–	0.98
E34 [8], 12.3 nM	–	0.951
E34 [8], 37 nM	–	0.786
E34 [8], 111.1 nM	–	1.09
E34 [8], 333.3 nM	–	0.996
E34 [8], 1000 nM	–	1.04
E34 [8], 3000 nM	–	1.04
E57 [6], 4.1 nM	0.799	–
E57 [6], 12.3 nM	1.03	–
E57 [6], 37 nM	0.543	–
E57 [6], 111.1 nM	0.877	–
E57 [6], 333.3 nM	0.527	–
E57 [6], 1000 nM	0.924	–
E57 [6], 3000 nM	0.651	–
E57 [13], 4.1 nM	–	1.07
E57 [13], 12.3 nM	–	0.938
E57 [13], 37 nM	–	1.02
E57 [13], 111.1 nM	–	1.11
E57 [13], 333.3 nM	–	0.978
E57 [13], 1000 nM	–	1
E57 [13], 3000 nM	–	1.03
FT3469 [3], 4.1 nM	0.84	–
FT3469 [3], 12.3 nM	0.912	–
FT3469 [3], 37 nM	0.359	–
FT3469 [3], 111.1 nM	0.641	–
FT3469 [3], 333.3 nM	0.526	–
FT3469 [3], 1000 nM	0.625	–
FT3469 [3], 3000 nM	0.629	–
FT3469 [10], 4.1 nM	–	0.972
FT3469 [10], 12.3 nM	–	1.13
FT3469 [10], 37 nM	–	0.987
FT3469 [10], 111.1 nM	–	1.06
FT3469 [10], 333.3 nM	–	1.01
FT3469 [10], 1000 nM	–	1.01
FT3469 [10], 3000 nM	–	0.933

N=C(N)c1ccc(-c2ccc(-c3ccc(C(=N)N)cc3)o2)cc1 [Furamidine dihydrochloride]
Conditions	phenotypic distance	surviving fraction
E13 [5], 4.1 nM	0.262	–
E13 [5], 12.3 nM	0.642	–
E13 [5], 37 nM	0.687	–
E13 [5], 111.1 nM	0.7	–
E13 [5], 333.3 nM	1.05	–
E13 [5], 1000 nM	1.58	–
E13 [5], 3000 nM	2.41	–
E13 [12], 4.1 nM	–	0.977
E13 [12], 12.3 nM	–	0.987
E13 [12], 37 nM	–	0.954
E13 [12], 111.1 nM	–	0.919
E13 [12], 333.3 nM	–	1.02
E13 [12], 1000 nM	–	1.1
E13 [12], 3000 nM	–	1.07
E21 [7], 4.1 nM	2.21	–
E21 [7], 12.3 nM	0.291	–
E21 [7], 37 nM	0.446	–
E21 [7], 111.1 nM	0.567	–
E21 [7], 333.3 nM	1.09	–
E21 [7], 1000 nM	1.6	–
E21 [7], 3000 nM	3.09	–
E21 [14], 4.1 nM	–	0.927
E21 [14], 12.3 nM	–	0.912
E21 [14], 37 nM	–	1
E21 [14], 111.1 nM	–	1.01
E21 [14], 333.3 nM	–	1.02
E21 [14], 1000 nM	–	1.03
E21 [14], 3000 nM	–	0.975
E28 [4], 4.1 nM	0.942	–
E28 [4], 12.3 nM	0.731	–
E28 [4], 37 nM	0.378	–
E28 [4], 111.1 nM	0.509	–
E28 [4], 333.3 nM	0.894	–
E28 [4], 1000 nM	1.65	–
E28 [4], 3000 nM	3.07	–
E28 [11], 4.1 nM	–	0.932
E28 [11], 12.3 nM	–	1.02
E28 [11], 37 nM	–	0.995
E28 [11], 111.1 nM	–	1.04
E28 [11], 333.3 nM	–	0.901
E28 [11], 1000 nM	–	1.05
E28 [11], 3000 nM	–	0.861
E31 [2], 4.1 nM	0.537	–
E31 [2], 12.3 nM	0.559	–
E31 [2], 37 nM	0.53	–
E31 [2], 111.1 nM	0.588	–
E31 [2], 333.3 nM	0.79	–
E31 [2], 1000 nM	1.64	–
E31 [2], 3000 nM	2.69	–
E31 [9], 4.1 nM	–	0.988
E31 [9], 12.3 nM	–	0.965
E31 [9], 37 nM	–	0.911
E31 [9], 111.1 nM	–	1.08
E31 [9], 333.3 nM	–	1.01
E31 [9], 1000 nM	–	1.04
E31 [9], 3000 nM	–	1.2
E34 [1], 4.1 nM	0.516	–
E34 [1], 12.3 nM	0.962	–
E34 [1], 37 nM	0.515	–
E34 [1], 111.1 nM	0.866	–
E34 [1], 333.3 nM	1.16	–
E34 [1], 1000 nM	2.15	–
E34 [1], 3000 nM	3.96	–
E34 [8], 4.1 nM	–	0.983
E34 [8], 12.3 nM	–	1.13
E34 [8], 37 nM	–	1.1
E34 [8], 111.1 nM	–	1.21
E34 [8], 333.3 nM	–	1.2
E34 [8], 1000 nM	–	1.09
E34 [8], 3000 nM	–	1.2
E57 [6], 4.1 nM	0.435	–
E57 [6], 12.3 nM	0.369	–
E57 [6], 37 nM	0.461	–
E57 [6], 111.1 nM	0.581	–
E57 [6], 333.3 nM	0.809	–
E57 [6], 1000 nM	1.18	–
E57 [6], 3000 nM	2	–
E57 [13], 4.1 nM	–	0.99
E57 [13], 12.3 nM	–	0.991
E57 [13], 37 nM	–	1.08
E57 [13], 111.1 nM	–	0.988
E57 [13], 333.3 nM	–	0.981
E57 [13], 1000 nM	–	0.956
E57 [13], 3000 nM	–	0.828
FT3469 [3], 4.1 nM	0.956	–
FT3469 [3], 12.3 nM	0.513	–
FT3469 [3], 37 nM	0.833	–
FT3469 [3], 111.1 nM	0.595	–
FT3469 [3], 333.3 nM	0.891	–
FT3469 [3], 1000 nM	1.39	–
FT3469 [3], 3000 nM	3.24	–
FT3469 [10], 4.1 nM	–	0.904
FT3469 [10], 12.3 nM	–	0.883
FT3469 [10], 37 nM	–	0.856
FT3469 [10], 111.1 nM	–	0.949
FT3469 [10], 333.3 nM	–	1.12
FT3469 [10], 1000 nM	–	1
FT3469 [10], 3000 nM	–	1
